Reference: patent publication US20250073244A1, “CRYSTALLINE FORMS OF PENTAAZA MACROCYCLIC RING COMPLEX” (Galera Labs, LLC, priority 2023, published 2025)

Columns and labels:
Type in all cases: physicochemical
[1] = Approximate solubility of the starting material at 25° C. and 50° C.
Experimental: About 10 mg of drug substance was weighed to a 2 mL glass vial and aliquot of 20 μL of each solvent will be added to determine solubility at 50° C. Approximate solubility was determined by visual observation.

[2] = as above; remark: listed apart in the source
[3] = Form E generation attempts via desolvation or heating
Description: These attempts were not successful in providing Form E as a pure crystalline phase. Mixtures primarily composed of Form E and other unidentified crystalline phase(s) were obtained (FIG. 42).
Heat induced crystallization of amorphous GC4711 is described in Table 50.

[4] = Differential scanning calorimetry (DSC); settings: −30 to 250° C.
Experimental: DSC was performed using a Mettler-Toledo DSC3+ differential scanning calorimeter. A tau lag adjustment is performed with indium, tin, and zinc. The temperature and enthalpy are adjusted with octane, phenyl salicylate, indium, tin and zinc. The adjustment is then verified with octane, phenyl salicylate, indium, tin, and zinc. The sample was placed into a hermetically sealed aluminum DSC pan, the weight was accurately recorded, and the sample was inserted into the DSC cell. A weighed aluminum pan configured as the sample pan was placed on the reference side of the cell. The pan lid was pierced prior to sample analysis. […]
A cycling DSC experiment was conducted for as-received amorphous, in which the sample was analyzed from −25° C. to 200° C., then cooled to −25° C. and reheated to 250° C. at 10° C./min.

[5] = X-ray powder diffraction (XRPD)
Experimental: XRPD patterns were collected with a PANalytical X'Pert PRO MPD or a PANalytical Empyrean diffractometer using an incident beam of Cu radiation produced using an Optix long, fine-focus source. An elliptically graded multilayer mirror was used to focus Cu Kα X-rays through the specimen and onto the detector. Prior to the analysis, a silicon specimen (NIST SRM 640e or 640f) was analyzed to verify the observed position of the Si 111 peak is consistent with the NIST-certified position. A specimen of the sample was sandwiched between 3-μm-thick films and analyzed in transmission geometry. […]
XRPD patterns were collected with a PANalytical X'Pert PRO MPD diffractometer using an incident beam of Cu Kα radiation produced using a long, fine-focus source and a nickel filter. […] Prior to the analysis, a silicon specimen (NIST SRM 640e or 640f) was analyzed to verify the observed position of the Si 111 peak is consistent with the NIST-certified position. […]
XRPD patterns were collected with a PANalytical X'Pert PRO MPD or a PANalytical Empyrean diffractometer using an incident beam of Cu radiation produced using an Optix long, fine-focus source. […] Prior to the analysis, a silicon specimen (NIST SRM 640e or 640f) was analyzed to verify the observed position of the Si 111 peak is consistent with the NIST-certified position. […]

For `CCC(=O)[O][Mn][O]C(=O)CC.c1cc2nc(c1)CN[C@H]1CCCC[C@@H]1NCCN[C@H]1CCCC[C@@H]1NC2` [drug substance], which Solubility ([1]; 1,4-Dioxane) is on record?
The Solubility was “S > 259.5 mg/mL”.

What about the Solubility ([1]; 2-Propanol) of the same molecule?
Its Solubility is “S > 292.5 mg/mL”.

And the Solubility ([1]; Acetonitrile)?
The Solubility was “S > 315.5 mg/mL”.

And the Solubility ([1]; Dichloromethane)?
Its Solubility is “S > 278.5 mg/mL”.

What about the Solubility ([1]; Ethanol) of the same molecule?
Its Solubility is “S > 281.5 mg/mL”.

What about the Solubility ([1]; Methanol) of the same molecule?
Its Solubility is “S > 332.0 mg/mL”.

And the Solubility ([1]; Tetrahydrofuran)?
Its Solubility is “S > 319.0 mg/mL”.

And the Solubility ([1]; Water)?
Its Solubility is “S > 337.5 mg/mL”.

What about the Solubility ([2]; 2-Propanol, 25° C.) of the same molecule?
Its Solubility is “S > 285.5 mg/mL”.

And the Solubility ([2]; Dichloromethane, 25° C.)?
Its Solubility is “S > 297.5 mg/mL”.

And the Solubility ([2]; Ethanol, 25° C.)?
The Solubility was “S > 322.5 mg/mL”.

What about the Solubility ([2]; Heptane, 25° C.) of the same molecule?
The Solubility was “S < 3.7 mg/mL”.

What about the Solubility ([2]; Heptane, 50° C.) of the same molecule?
The Solubility was “S < 3.7 mg/mL”.

And the Solubility ([2]; Methanol, 25° C.)?
Its Solubility is “S > 306.0 mg/mL”.

What about the Solubility ([2]; Tetrahydrofuran, 25° C.) of the same molecule?
Its Solubility is “S > 319.0 mg/mL”.

What about the Solubility ([2]; Water, 25° C.) of the same molecule?
Its Solubility is “S > 314.5 mg/mL”.

With `CCC(=O)[O][Mn][O]C(=O)CC.c1cc2nc(c1)CN[C@H]1CCCC[C@@H]1NCCN[C@H]1CCCC[C@@H]1NC2` [Sample 8429-97-03] as the molecule, how does the “Result (form)” value ([3]; P2O5, 4 days) read?
The value was “E + A”.

With `CCC(=O)[O][Mn][O]C(=O)CC.c1cc2nc(c1)CN[C@H]1CCCC[C@@H]1NCCN[C@H]1CCCC[C@@H]1NC2` [Form 8429-39-01] as the molecule, how does the Observation ([3]; amorphous material (pale light yellow) after held @ 100° C., 5 min.) read?
The Observation was 3. peach in color.

With `CCC(=O)[O][Mn][O]C(=O)CC.c1cc2nc(c1)CN[C@H]1CCCC[C@@H]1NCCN[C@H]1CCCC[C@@H]1NC2` [Sample 8516-07-01] as the molecule, how does the “Result (form)” value ([3]; 8429-97-01 Forn E + Form A, vacuum dried, ambient, 2 days) read?
The value was “peaks”.

With `CCC(=O)[O][Mn][O]C(=O)CC.c1cc2nc(c1)CN[C@H]1CCCC[C@@H]1NCCN[C@H]1CCCC[C@@H]1NC2` [Sample 8429-73-01] as the molecule, how does the DSC minor endotherm [4] read?
The DSC minor endotherm was “minor endotherm near 197 °C”.

What about the “XRPD Result” value [5] of the same molecule?
The value was “Form E + peaks”.

For `CCC(=O)[O][Mn][O]C(=O)CC.c1cc2nc(c1)CN[C@H]1CCCC[C@@H]1NCCN[C@H]1CCCC[C@@H]1NC2` [Form 8429-73-01], which DSC endotherm onset [4] is on record?
The DSC endotherm onset was “endotherm onset of 232 °C”.

With `CCC(=O)[O][Mn][O]C(=O)CC.c1cc2nc(c1)CN[C@H]1CCCC[C@@H]1NCCN[C@H]1CCCC[C@@H]1NC2` [Sample 8429-84-01] as the molecule, how does the “Result (form)” value ([3]; 8429-79-01 and 8429-79-02, Form A + E combined and stored over P2O5, 5 days) read?
The value was “E + A”.
